For 28 compounds, IC50 and permeability results are on record in ChEMBL document CHEMBL4390667, “Novel tacrine-tryptophan hybrids: Multi-target directed ligands as potential treatment for Alzheimer's disease” (Eur J Med Chem, 2019).

One series has as its system HepG2. Put plainly: cells. To be noted: Homo sapiens, HepG2, 24 h.
The conditions of series [1]: pampa, pH 7.4, 100 µM.
Description: Effective permeability of the compound in PBS buffer at pH 7.4 at 100 uM after 3 to 6 hrs by PAMPA
A further series addresses Cholinesterase (Homo sapiens, UniProt P06276).
The test system of a further series is CHO-K1. Put plainly: cells. To be noted: Cricetulus griseus, CHO-K1, 24 h.
Another series concerns the target Acetylcholinesterase (Homo sapiens, UniProt P22303).
The next series concerns the target Nitric oxide synthase 1 (Rattus norvegicus, UniProt P29476).

Broadly, the pIC50 is the IC50 on a negative log10 scale, so that one unit is a factor of ten. High values mean a small IC50, low ones a large IC50.

pIC50: −log10 of the molar value.

Chain of Cholinesterase (P06276 whole entry): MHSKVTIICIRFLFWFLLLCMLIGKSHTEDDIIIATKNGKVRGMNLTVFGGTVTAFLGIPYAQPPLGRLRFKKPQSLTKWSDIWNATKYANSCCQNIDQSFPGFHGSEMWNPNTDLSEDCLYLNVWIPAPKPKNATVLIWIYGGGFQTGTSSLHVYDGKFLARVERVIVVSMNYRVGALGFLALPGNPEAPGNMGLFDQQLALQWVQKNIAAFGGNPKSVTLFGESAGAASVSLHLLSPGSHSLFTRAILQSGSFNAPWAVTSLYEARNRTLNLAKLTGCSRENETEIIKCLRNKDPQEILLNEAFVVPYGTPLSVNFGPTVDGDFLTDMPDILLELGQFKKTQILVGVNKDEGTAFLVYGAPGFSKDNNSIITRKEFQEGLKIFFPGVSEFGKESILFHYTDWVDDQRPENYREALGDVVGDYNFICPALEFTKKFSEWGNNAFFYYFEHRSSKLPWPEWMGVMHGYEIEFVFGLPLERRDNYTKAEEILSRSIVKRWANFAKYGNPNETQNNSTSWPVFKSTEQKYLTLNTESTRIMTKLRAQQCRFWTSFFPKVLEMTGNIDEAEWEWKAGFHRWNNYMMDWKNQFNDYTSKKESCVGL
Chain of Acetylcholinesterase (P22303 whole entry): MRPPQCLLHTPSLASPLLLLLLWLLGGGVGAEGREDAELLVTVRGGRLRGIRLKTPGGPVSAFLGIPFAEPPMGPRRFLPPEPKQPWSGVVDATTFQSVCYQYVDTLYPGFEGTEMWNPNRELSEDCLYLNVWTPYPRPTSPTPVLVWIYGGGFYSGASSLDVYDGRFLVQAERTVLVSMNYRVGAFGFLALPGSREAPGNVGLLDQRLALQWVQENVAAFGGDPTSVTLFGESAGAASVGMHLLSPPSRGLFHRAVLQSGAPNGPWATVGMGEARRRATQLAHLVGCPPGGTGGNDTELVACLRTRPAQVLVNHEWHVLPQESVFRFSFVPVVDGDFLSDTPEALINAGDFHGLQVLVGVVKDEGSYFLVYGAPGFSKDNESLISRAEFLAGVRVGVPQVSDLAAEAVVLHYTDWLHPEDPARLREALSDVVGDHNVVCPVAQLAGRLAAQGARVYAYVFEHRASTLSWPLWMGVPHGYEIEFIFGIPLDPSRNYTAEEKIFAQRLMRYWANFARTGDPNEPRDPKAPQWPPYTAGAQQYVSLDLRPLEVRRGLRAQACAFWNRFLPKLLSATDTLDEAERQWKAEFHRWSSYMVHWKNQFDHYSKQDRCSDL
Chain of Nitric oxide synthase 1 (P29476 whole entry, looked up): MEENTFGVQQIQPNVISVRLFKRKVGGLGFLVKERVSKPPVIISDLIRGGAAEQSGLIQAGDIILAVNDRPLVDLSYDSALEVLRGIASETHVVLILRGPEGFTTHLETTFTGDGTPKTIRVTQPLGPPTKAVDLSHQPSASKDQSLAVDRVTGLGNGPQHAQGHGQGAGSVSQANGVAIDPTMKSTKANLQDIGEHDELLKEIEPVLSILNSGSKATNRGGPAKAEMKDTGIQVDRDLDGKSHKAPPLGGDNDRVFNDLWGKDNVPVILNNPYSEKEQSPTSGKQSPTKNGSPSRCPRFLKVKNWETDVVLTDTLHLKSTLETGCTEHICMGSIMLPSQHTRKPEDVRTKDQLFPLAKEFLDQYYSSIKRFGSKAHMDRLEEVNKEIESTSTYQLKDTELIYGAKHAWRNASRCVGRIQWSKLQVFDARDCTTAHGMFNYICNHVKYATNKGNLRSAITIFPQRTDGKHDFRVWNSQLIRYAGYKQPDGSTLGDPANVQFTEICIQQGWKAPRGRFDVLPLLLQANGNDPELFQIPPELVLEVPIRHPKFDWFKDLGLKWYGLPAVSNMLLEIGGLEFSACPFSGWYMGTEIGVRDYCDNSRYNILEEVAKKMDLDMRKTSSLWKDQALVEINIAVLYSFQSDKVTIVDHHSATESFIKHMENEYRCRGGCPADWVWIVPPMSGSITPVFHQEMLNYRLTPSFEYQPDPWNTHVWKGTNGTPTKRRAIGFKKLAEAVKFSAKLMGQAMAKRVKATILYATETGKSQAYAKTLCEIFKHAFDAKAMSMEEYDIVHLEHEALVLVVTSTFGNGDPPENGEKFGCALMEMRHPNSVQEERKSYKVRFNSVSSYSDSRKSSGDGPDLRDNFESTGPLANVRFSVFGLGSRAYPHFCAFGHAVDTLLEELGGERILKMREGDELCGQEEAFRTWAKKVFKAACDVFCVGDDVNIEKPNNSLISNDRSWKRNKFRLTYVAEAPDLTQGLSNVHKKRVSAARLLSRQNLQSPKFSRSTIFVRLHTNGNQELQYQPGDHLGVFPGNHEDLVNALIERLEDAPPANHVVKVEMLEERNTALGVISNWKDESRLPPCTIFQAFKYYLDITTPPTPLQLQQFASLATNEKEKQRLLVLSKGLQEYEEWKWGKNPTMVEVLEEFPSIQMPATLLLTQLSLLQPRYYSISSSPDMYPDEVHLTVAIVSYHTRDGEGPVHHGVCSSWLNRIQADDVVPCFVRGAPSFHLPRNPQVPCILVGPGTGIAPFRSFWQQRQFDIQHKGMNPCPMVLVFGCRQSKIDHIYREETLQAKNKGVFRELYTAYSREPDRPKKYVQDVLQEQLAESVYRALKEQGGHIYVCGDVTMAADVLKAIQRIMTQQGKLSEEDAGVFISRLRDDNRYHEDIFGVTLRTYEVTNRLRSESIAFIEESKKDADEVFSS
Description for Acetylcholinesterase: Inhibition of human recombinant AChE using acetylthiocholine iodide as substrate preincubated for 5 mins followed by substrate addition and measured over 2 mins by UV-Vis spectrophotometric analysis based Ellman's method
Description for CHO-K1: Cytotoxicity against CHOK1 cells assessed as reduction in cell viability incubated for 24 hrs by MTT assay
Description for HepG2: Cytotoxicity against human HepG2 cells assessed as reduction in cell viability incubated for 24 hrs by MTT assay
Description for Nitric oxide synthase 1: Inhibition of nNOS in Wistar rat cortical homogenates incubated for 30 mins

In the series on HepG2, `N[C@@H](Cc1c[nH]c2ccccc12)C(=O)O` [TRYPTOPHAN] gave a pIC50 of 1.77.

As to `COc1ccc2nc3c(c(NCCNC(=O)[C@@H](N)Cc4c[nH]c5ccccc45)c2c1)CCCC3.Cl.Cl`, the permeability result in series [1] is reported as “Impermeable”. The pIC50 against Cholinesterase was 6.32; with CHO-K1, 3.88; at Acetylcholinesterase, 5.24; against Nitric oxide synthase 1 it was 4.72.

For the compound `Cl.Cl.N[C@@H](Cc1c[nH]c2ccccc12)C(=O)NCCNc1c2c(nc3ccccc13)CCCC2`, the permeability result in series [1] is “Impermeable”. Also, the negative-log IC50 (pIC50) at Cholinesterase was 7.25; with CHO-K1 it was 3.70; on Acetylcholinesterase, 6.14; against Nitric oxide synthase 1 it was 4.48.

Turning to `N[C@@H](Cc1c[nH]c2ccccc12)C(=O)NCCNc1c2c(nc3cc(Cl)ccc13)CCCC2`, the pIC50 on Cholinesterase was 6.47; in the series on CHO-K1 it was 4.59; at Acetylcholinesterase, 6.80; against Nitric oxide synthase 1, 4.41.

Take `Cl.Cl.N[C@@H](Cc1c[nH]c2ccccc12)C(=O)NCCCNc1c2c(nc3ccccc13)CCCC2`: the permeability entry in series [1] was “Impermeable”. Besides, the negative logarithm of the IC50 (pIC50) is 7.40 at Cholinesterase, 3.94 in the series on CHO-K1, 6.24 against Acetylcholinesterase and 4.49 on Nitric oxide synthase 1.

Consider `N[C@@H](Cc1c[nH]c2ccccc12)C(=O)NCCCCCCCCNc1c2c(nc3ccccc13)CCCC2`, for which the negative-log IC50 (pIC50) is 7.19 at Cholinesterase; 5.03 in the series on HepG2; 4.33 in the series on CHO-K1; 7.12 at Acetylcholinesterase; 4.43 against Nitric oxide synthase 1.

Consider `Cl.Cl.N[C@@H](Cc1c[nH]c2ccccc12)C(=O)NCCCCNc1c2c(nc3ccccc13)CCCC2`, for which the permeability result in series [1] is “Permeable”. For the same compound, the pIC50 is 6.91 at Cholinesterase, 4.47 in the series on CHO-K1, 5.89 against Acetylcholinesterase and 4.74 against Nitric oxide synthase 1.

With `Cl.Cl.N[C@@H](Cc1c[nH]c2ccccc12)C(=O)NCCCCCCNc1c2c(nc3ccccc13)CCCC2`, in series [1], the permeability entry is on record as “Impermeable”. The pIC50 was 8.41 against Cholinesterase; 4.59 in the series on HepG2; 4.05 in the series with CHO-K1; 6.92 at Acetylcholinesterase; 4.48 against Nitric oxide synthase 1.

Regarding `Cl.Cl.N[C@H](Cc1c[nH]c2ccccc12)C(=O)NCCCCCCNc1c2c(nc3cc(Cl)ccc13)CCCC2`, the permeability entry in series [1] is given as “Permeable”. The negative logarithm of the IC50 (pIC50) against Cholinesterase is 6.85; in the series on HepG2 it was 5.38; in the series with CHO-K1 it was 4.82; at Acetylcholinesterase, 8.16; against Nitric oxide synthase 1 it was 4.59.

Consider `COc1ccc2nc3c(c(N)c2c1)CCCC3`, for which the permeability result in series [1] is “Permeable”. Moreover, the pIC50 was 3.92 in the series on HepG2 and 4.20 in the series on CHO-K1.

Consider `COc1ccc2nc3c(c(NCCCNC(=O)[C@@H](N)Cc4c[nH]c5ccccc45)c2c1)CCCC3.Cl.Cl`, for which the permeability result in series [1] is recorded as “Impermeable”. Moreover, the negative-log IC50 (pIC50) on Cholinesterase is 5.74; in the series on CHO-K1 it was 4.02; at Acetylcholinesterase it was 5.89; against Nitric oxide synthase 1, 4.52.

For `CNC(=N)NCCC[C@H](N)C(=O)OC`, the pIC50 at Nitric oxide synthase 1 was 5.39.

With `COc1ccc2nc3c(c(NCCCCNC(=O)[C@@H](N)Cc4c[nH]c5ccccc45)c2c1)CCCC3.Cl.Cl`, the permeability entry in series [1] was “Impermeable”. Further, the pIC50 against Cholinesterase was 6.28; in the series on CHO-K1, 4.14; on Acetylcholinesterase, 4.92; on Nitric oxide synthase 1 it was 4.57.

For the compound `COc1ccc2nc3c(c(NCCCCCCNC(=O)[C@@H](N)Cc4c[nH]c5ccccc45)c2c1)CCCC3`, the negative-log IC50 (pIC50) on Cholinesterase was 7.26; with HepG2, 4.80; in the series on CHO-K1, 4.64; on Acetylcholinesterase, 6.03; on Nitric oxide synthase 1, 4.57.

As to `N[C@@H](Cc1c[nH]c2ccccc12)C(=O)NCCCNc1c2c(nc3cc(Cl)ccc13)CCCC2`, the negative logarithm of the IC50 (pIC50) at Cholinesterase was 6.85; with CHO-K1, 4.54; on Acetylcholinesterase, 7.15; against Nitric oxide synthase 1, 4.51.

With `Cl.Cl.N[C@@H](Cc1c[nH]c2ccccc12)C(=O)NCCCCCCCNc1c2c(nc3cc(Cl)ccc13)CCCC2`, the permeability result in series [1] is “Permeable”. Also, the pIC50 against Cholinesterase is 7.28; with HepG2 it was 5.22; in the series on CHO-K1 it was 4.62; against Acetylcholinesterase, 7.72; at Nitric oxide synthase 1 it was 4.57.

With `COc1ccc2nc3c(c(NCCCCCCCNC(=O)[C@@H](N)Cc4c[nH]c5ccccc45)c2c1)CCCC3`, the negative logarithm of the IC50 (pIC50) at Cholinesterase was 7.11; in the series on HepG2, 5.25; in the series with CHO-K1, 4.85; against Acetylcholinesterase it was 6.01; against Nitric oxide synthase 1, 4.59.

Consider `COc1ccc2nc3c(c(NCCCCCNC(=O)[C@@H](N)Cc4c[nH]c5ccccc45)c2c1)CCCC3.Cl.Cl`, for which the permeability entry in series [1] is “Impermeable”. In addition, the pIC50 against Cholinesterase was 6.72; in the series on CHO-K1, 4.34; on Acetylcholinesterase it was 6.21; against Nitric oxide synthase 1, 4.59.

In the case of `Cl.Cl.N[C@@H](Cc1c[nH]c2ccccc12)C(=O)NCCCCCCCCNc1c2c(nc3cc(Cl)ccc13)CCCC2`, in series [1], the permeability entry is recorded as “Permeable”. Besides, the pIC50 is 6.85 at Cholinesterase, 4.19 with CHO-K1, 7.30 against Acetylcholinesterase and 4.37 against Nitric oxide synthase 1.

Consider `Cl.Cl.N[C@@H](Cc1c[nH]c2ccccc12)C(=O)NCCCCCNc1c2c(nc3ccccc13)CCCC2`, for which the permeability entry in series [1] was “Impermeable”. Further, the negative-log IC50 (pIC50) was 7.64 against Cholinesterase, 4.08 in the series with CHO-K1, 6.49 on Acetylcholinesterase and 4.59 at Nitric oxide synthase 1.

For `c1ccc2c(NCCCCCCCNc3c4c(nc5ccccc35)CCCC4)c3c(nc2c1)CCCC3`, the pIC50 at Nitric oxide synthase 1 was 5.54.

Turning to `N[C@@H](Cc1c[nH]c2ccccc12)C(=O)NCCCCCNc1c2c(nc3cc(Cl)ccc13)CCCC2`, the pIC50 was 7.13 at Cholinesterase, 4.68 with CHO-K1, 7.12 against Acetylcholinesterase and 4.57 on Nitric oxide synthase 1.

Take `Nc1c2c(nc3cc(Cl)ccc13)CCCC2`: the permeability entry in series [1] was “Permeable”. Moreover, the negative-log IC50 (pIC50) with HepG2 and with CHO-K1 was 4.15 in each case.

As to `Cl.Cl.N[C@@H](Cc1c[nH]c2ccccc12)C(=O)NCCCCCCCNc1c2c(nc3ccccc13)CCCC2`, the permeability result in series [1] is “Impermeable”. Moreover, the pIC50 at Cholinesterase is 7.60; in the series on CHO-K1, 3.61; at Acetylcholinesterase, 6.92; against Nitric oxide synthase 1, 4.49.

As to `COc1ccc2nc3c(c(NCCCCCCCCNC(=O)[C@@H](N)Cc4c[nH]c5ccccc45)c2c1)CCCC3`, the pIC50 is 6.89 against Cholinesterase, 4.37 with CHO-K1, 5.89 at Acetylcholinesterase and 4.35 against Nitric oxide synthase 1.

As for `O=C(CCCCCCNc1c2c(nc3cccc(Cl)c13)CCCC2)NCCc1c[nH]c2ccccc12`, the pIC50 is 8.11 against Cholinesterase and 11.10 at Acetylcholinesterase.

For the compound `O=C(CCCCCNc1c2c(nc3cc(Cl)ccc13)CCCC2)NCCc1cc2ccccc2[nH]1`, in series [1], the permeability entry is “Permeable”. In addition, the values for the negative logarithm of the IC50 (pIC50) against Cholinesterase and on Acetylcholinesterase were 6.74 and 9.14, respectively.

Take `N[C@@H](Cc1c[nH]c2ccccc12)C(=O)NCCCCNc1c2c(nc3cc(Cl)ccc13)CCCC2`: the pIC50 at Cholinesterase was 6.92; in the series on CHO-K1 it was 4.80; at Acetylcholinesterase, 7.21; against Nitric oxide synthase 1 it was 4.59.
